The source of these data is patent publication US9549946B2, “Materials and methods for preventing and treating microbe-mediated epithelial disorders” (priority 2002, dated 2017).

The subject of this series is human intestinal epithelial cells. Description: Epithelial transport function (Na+/H+ exchange, glucose transport). The format is cell-based. The text has this: The resistance of PEG-cultured human intestinal epithelial cells to the barrier-disrupting effects of P. aeruginosa, as judged by the maintenance of TEER, offers a practical approach to stabilizing tight junctional barrier function in the face of a challenge from invading pathogens. Further evidence of the therapeutic value of PEG 15-20 is that epithelial transport function (Na^+/H^+ exchange, glucose transport) is unaffected by this compound.

As to polyethylene glycol [PEG 15-20], the “epithelial transport function (Na+/H+ exchange, glucose transport)” value is reported as “unaffected”.
